Source: patent US20040038944A1, “Compositions and methods of preventing or reducing the risk or incidence of skeletal injuries in horses” (Merck & Co., Inc., priority 2000, published 2004)

How the values were obtained:
[1] = system: C-telopeptides (C-Tx); conditions: alendronate injection, horses confined to stall rest for 56 days, versus saline
Text: (§1) Bone metabolism is monitored using standard techniques, i.e. serum assays to determine levels of markers of bone turnover, bone resorption and bone formation and ultrasound is used to assess changes in bone density.
(§2) Materials and Methods: Sixteen healthy adult thoroughbred horses (eight mares and eight male castrates) which had previously been running at pasture for at least 4 months are used.
(§3) The horses are randomly allocated to 4 treatment groups of four horses, each containing two mares and two male castrates. Serum samples are collected and ultrasound measurements are taken on three occasions directly before commencement of stall rest. Assays are conducted on the serum samples to determine pre-confinement levels of C-telopeptides (C-Tx; a collagen breakdown product that is a marker of bone resorption); osteocalcin (a marker of bone turnover) and bone specific alkaline phosphatase (a marker of bone formation). Ultrasound is used to measure the speed of transmission of sound waves through the bone.
(§4) Stall rest is commenced the day of first treatment. Serum samples are taken twice weekly and ultrasound measurements are taken each 14 days for the 56 days of the study to monitor changes in bone metabolism markers and in bone density relative to pre-confinement values. At the end of the study the horses are returned to the pasture.

[2] = system: bone specific alkaline phosphatase; conditions: Groups 2-4, i.v., 56 days stall rest; also reduced in placebo
Text: as §1, §2, §3, §4

SMILES: NCCCC(O)(P(=O)(O)O)P(=O)(O)O [alendronate, 4-amino-1-hydroxybutylidene-1,1-bisphosphonic acid monosodium trihydrate]
- bone resorption (result in words) [1]: suppressed bone resorption
- marker for bone formation (bone specific alkaline phosphatase) [2]: reduced
